The source of these data is article PMC5908784, “Extracellular loops 2 and 3 of the calcitonin receptor selectively modify agonist binding and efficacy” (Biochemical Pharmacology, 2018).

Positions count from the first letter of the chain named. Where a SMILES comes first, the peptide text is derived from it. Bridges are numbered along the chain shown (N, C = ends). Where no end group is shown, it is not given here.

For test [1], the target named is T1, hCTR L368A (Homo sapiens, UniProt P30988, L368A).
T1 construct: c-Myc (N); expressed in transfected cells
T1 sequence (P30988 25-474 L368A): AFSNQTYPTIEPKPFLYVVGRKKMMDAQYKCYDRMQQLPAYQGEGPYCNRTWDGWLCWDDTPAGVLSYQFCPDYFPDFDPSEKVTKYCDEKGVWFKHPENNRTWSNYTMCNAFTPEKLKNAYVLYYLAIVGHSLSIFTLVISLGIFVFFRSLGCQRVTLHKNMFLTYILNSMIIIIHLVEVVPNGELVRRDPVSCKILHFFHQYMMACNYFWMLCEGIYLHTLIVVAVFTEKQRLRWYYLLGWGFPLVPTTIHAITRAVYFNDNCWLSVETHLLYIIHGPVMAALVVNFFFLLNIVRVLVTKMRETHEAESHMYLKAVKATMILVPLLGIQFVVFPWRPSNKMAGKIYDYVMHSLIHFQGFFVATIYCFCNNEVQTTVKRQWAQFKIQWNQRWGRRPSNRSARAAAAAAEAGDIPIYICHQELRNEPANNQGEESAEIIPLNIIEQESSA
Put plainly: Heterologous whole cell competition binding. To be noted: heterologous competition of 125I-sCT(8-32), whole cells, mean ± S.E.M., SEM. Summed up: (§1)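 Steps: overnight co-incubation of cells, tracer and test ligand; washout of unbound label; gamma counting; Cheng-Prusoff conversion to pKi.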

For test [2], the target named is T2, hCTR F285A (Homo sapiens, UniProt P30988, F285A).
T2 construct: expressed in transfected cells
T2 sequence (P30988 25-474 F285A): T1 sequence (P30988 25-474 L368A) with F261A, A344L
In words: Heterologous whole cell competition binding. As to conditions: heterologous competition of 125I-sCT(8-32), whole cells, mean ± S.E.M., SEM. In short, it runs like this:
as §1

Test [3] addresses T3, hCTR D287A (Homo sapiens, UniProt P30988, D287A).
T3 construct: c-Myc (N); expressed in transfected cells
T3 sequence (P30988 25-474 D287A): T1 sequence (P30988 25-474 L368A) with D263A, A344L
In words: IP1 accumulation. The test is classed as cell-based. To be noted: mean ± S.E.M. The procedure:
Cells (2.5 × 10^4 cells/well) were plated into 96 well trays and cultured overnight. Cells were stimulated with increasing concentration of ligands for 60 min in the presence of LiCl. Samples were lysed and endogenous IP1 was measured using an IP-One HTRF® assay kit (CisBio) as specified by the manufacturer. Data were normalized to the maximal response elicited by 100 μM of ATP.
IC50 and Bmax values were estimated from competitive inhibition of ^125I-sCT(8-32) binding using a 3-parameter logistic equation (log(inhibitor versus response)) in Prism (v7; Graphpad). Data were corrected for radioligand occupancy using the Cheng-Prusoff equation in Prism; as such data are reported as pKi. Emax and EC50 were estimated from concentration-response curves using with a 3-parameter logistic equation in Prism (v7). These values are a composite of functional affinity, efficacy and stimulus response coupling. […] Derived τ values were normalized to experimentally determined levels of cell surface expression to provide a measure of efficacy (τc) that is independent of affinity and altered cell surface receptor expression. pKi, pKA and log τc values for mutant receptors were statistically compared to those of the WT receptor using a one-way analysis of variance (ANOVA) and Dunnett’s post-test. […]

Test [4] deals with T4, hCTR R281A (Homo sapiens, UniProt P30988, R281A).
T4 construct: expressed in transfected cells
T4 sequence (P30988 25-474 R281A): T1 sequence (P30988 25-474 L368A) with R257A, A344L
In words: Homologous whole cell competition binding. As to conditions: homologous competition of 125I-sCT(8-32), whole cells, mean ± S.E.M., SEM. The procedure: Homologous radioligand competition was performed on 2.5 × 10^4 cells/well seeded into 96-well trays and cultured overnight. Cells were incubated overnight at 4 °C with two concentrations of ^125I-sCT(8-32) (between 25 and 100 pM; specific activity, 2000 Ci/mmol^9) and serial dilutions of non-iodinated sCT(8-32). Non-bound ligand was removed and bound ligand activity was measured using a γ counter (Wallac Wizard 1470 Gamma Counter, Perkin Elmer, 80% counter efficiency). Values were normalized against non-specific binding (0%) defined by the presence of 1 μM of unlabelled sCT(8-32), and total ligand bound in absence of competing sCT(8-32) (100%).
IC50 and Bmax values were estimated from competitive inhibition of ^125I-sCT(8-32) binding using a 3-parameter logistic equation (log(inhibitor versus response)) in Prism (v7; Graphpad). Data were corrected for radioligand occupancy using the Cheng-Prusoff equation in Prism; as such data are reported as pKi. Emax and EC50 were estimated from concentration-response curves using with a 3-parameter logistic equation in Prism (v7). These values are a composite of functional affinity, efficacy and stimulus response coupling. The Black and Leff operational model of agonism was applied to separate effects on pathway-specific efficacy (τ) from those that modify ligand functional affinity (pKA). Derived τ values were normalized to experimentally determined levels of cell surface expression to provide a measure of efficacy (τc) that is independent of affinity and altered cell surface receptor expression. pKi, pKA and log τc values for mutant receptors were statistically compared to those of the WT receptor using a one-way analysis of variance (ANOVA) and Dunnett’s post-test. Significance was accepted at P < 0.05.

The Ki is the dissociation constant of the complex between target and ligand, obtained from inhibition or displacement. A low value points to tighter binding. One may read the EC50 as the concentration giving half of the maximal effect. Higher therefore signals weaker potency. The Emax is the greatest response seen or fitted, relative to the assay's reference. `CSCC[C@H](NC(=O)CNC(=O)[C@H](CO)NC(=O)[C@H](Cc1ccccc1)NC(=O)[C@H](CCCNC(=N)N)NC(=O)[C@H](Cc1c[nH]cn1)NC(=O)[C@H](Cc1ccccc1)NC(=O)[C@H](CC(N)=O)NC(=O)[C@H](CC(N)=O)NC(=O)[C@H](CC(C)C)NC(=O)[C@H](CC(N)=O)NC(=O)[C@H](CCCNC(=N)N)NC(=O)[C@H](Cc1c[nH]c2ccccc12)NC(=O)[C@H](Cc1ccc(O)cc1)NC(=O)[C@H](C)NC(=O)[C@H](CO)NC(=O)[C@H](CC(C)C)NC(=O)[C@@H](NC(=O)[C@@H]1CSSC[C@H](N)C(=O)N[C@@H](CO)C(=O)N[C@@H](CC(N)=O)C(=O)N[C@@H](CC(C)C)C(=O)N[C@@H](CO)C(=O)N[C@@H]([C@@H](C)O)C(=O)N1)C(C)C)C(=O)NCC(=O)N[C@@H](Cc1ccccc1)C(=O)NCC(=O)N1CCC[C@H]1C(=O)N[C@@H](CCC(=O)O)C(=O)N[C@H](C(=O)N1CCC[C@H]1C(N)=O)[C@@H](C)O` [pCT] (H-CSNLSTCVLSAYWRNLNNFHRFSGMGFGPETP-NH2; disulfide 1-7): the Ki is 8.51 nM in test [1] and 12 nM in test [2]. The EC50 in test [3] (IP1, CV1-FlpIn cells, 60 min, LiCl) is 3.72 nM. For the same compound, the Emax in test [3] (IP1 maximal response, SEM) was 56 ± 7%.

In test [4], “VLGKLSQELHKLQTYPRTNTGSGTP-NH2 [sCT(8-32)]” gave an inhibition constant Ki of 0.851 nM. This lies in the sub-nanomolar range.
